The values that follow come from EPA's ToxValDB 9.5 (doi:10.2903/j.efsa.2014.3881).

Some results are limits rather than exact numbers.

In one series the test system is Mus musculus. The following applies: chronic; duration: 18 months; body weight.
The next series relates to Coturnix japonica. The following applies: acute; oral; mortality.
The next series deals with Anas platyrhynchos. The following applies: reproductive.
A further series has as its system Colinus virginianus. The following applies: acute; oral; diet; mortality.
The test system of the next series is Daphnia magna. As to conditions: chronic/long-term; duration: 21 days; reproduction.
A further series has as its system Apis mellifera. As to conditions: acute, mortality.
The subject of another series is Canidae. The following applies: chronic; duration: 1 years; oral; Dog Other; body weight.

As for `COC(=O)c1ccc(C(F)(F)F)nc1S(=O)(=O)[N-]C(=O)Nc1nc(OC)cc(OC)n1.[Na+]` [Flupyrsulfuron-methyl sodium], the NOAEL – broadly, the highest tested level that showed no adverse finding – in the series on Mus musculus is 3.51 mg/kg-day; in the series on Rattus norvegicus (developmental, development), 20 mg/kg-day; in the series with Canidae, 13.6 mg/kg-day. Besides, the LD50 was over 2500 mg/kg-day with Rattus norvegicus (acute, mortality); over 2250 mg/kg-day with Coturnix japonica; over 1610 mg/kg-day in the series with Colinus virginianus; over 250 µg/piece in the series on Apis mellifera (dermal); 119 µg/piece in the series with Apis mellifera (oral, unspecified). In addition, the LC50 was over 1000 mg/kg in the series with Tagia sp. (acute, duration: 14 days, mortality) and 470 µg/mL in the series with Oncorhynchus mykiss (acute, duration: 96 hours, mortality). The NOEC stood at 0.065 mg/kg in the series on Tagia sp. (chronic/long-term, duration: 8 weeks); 9.2 mg/L in the series with Oncorhynchus mykiss (chronic/long-term, duration: 90 days, growth); 16 mg/L with Daphnia magna. The molecule further returned an NOEL in the series with Anas platyrhynchos of 26 mg/kg-day.
